Experimental data from patent US8524686B2, “Composition for prevention or treatment of eye diseases” (Benebiosis Co., Ltd., priority 2008, dated 2013).

What was measured:
[1] = tested on: experimental dry eye (EDE) mice; test: Measurement of tear production with cotton thread in mouse model of dry eye; assay type: in vivo, C57BL/6 mice; settings: for Tear production (thread's wet length): n = 6, cotton thread 60 seconds
Experimental: (§1) 6 to 8 weeks old C57BL/6 mice (Central Lab Animal, Seoul, Korea) were used for mouse model for dry eye syndrome. All animals were treated according to the ARVO Statement for the Use of Animals in Ophthalmic and Vision Research. Experimental dry eye (EDE) was induced by subcutaneous injection of 0.5 mg/0.2 mL scopolamine hydrobromide (Sigma-Aldrich, St. Louis, Mo.) in alternating hindquarters administered four times a day (9 AM, […], 3 PM and 6 PM) and by exposure to air and ≦40% ambient humidity for 18 hours per day, as previously reported (23). Four experimental groups were evaluated: untreated group (UT), EDE group (control), EDE+sialyllactose (1 mg/kg) group and EDE+sialyllactose (5 mg/kg) group.
Tear production was measured with cotton thread (Zone-quick; Oasis). The thread was held with jeweler forceps and applied to the ocular surface in the lateral canthus for 60 seconds. Wetting of the thread was measured in millimeters, using the scale on the cotton thread.
Tear production at the ocular surface in the lateral canthus from the UT, EDE and two treatment groups (6 eyes/group/experiment, in four different sets of experiments) was measured with cotton thread.

MMP-9 = test: RT-PCR of MMP-9 RNA transcripts in corneal epithelial cells of EDE mice; assay type: in vivo, murine
Experimental: as §1
(§2) Corneal and conjunctival epithelial cells acquired from six eyes per each test group. Total RNA was isolated using Trizol reagent (JBI Co., Korea) and kept at −80° C. until use. cDNA was synthesized by reverse transcriptase with an oligo dT-adaptor primer from an RNA PCR kit (Bioneer, Korea) according to the manufacturer's recommended protocol. […] In RT-PCR assay, utilization of the same quantity of mRNA was confirmed by analyzing expression level of mGAPDH. […]
(§3) The level of RNA transcripts encoding MMP-9, IL-1β, TNF-α and the housekeeping gene GAPDH were evaluated by RT-PCR using the total RNA of the corneal epithelial cells obtained from each group (UT, EDE and EDE+sialyllactose). […]

IL-1β = test: RT-PCR of IL-1β RNA transcripts in corneal epithelial cells of EDE mice; assay type: in vivo, murine
Experimental: as §1, §2, §3

TNF-α = test: RT-PCR of TNF-α RNA transcripts in corneal epithelial cells of EDE mice; assay type: in vivo, murine
Experimental: as §1, §2, §3

murine MMP-9 = test: SDS-PAGE gelatin zymography of corneal and conjunctival epithelial cells of EDE mice; assay type: in vivo; settings: FIG. 3
Experimental: as §1
In order to determine the relative concentration of gelatinases in corneal and conjunctival epithelial cells, SDS-PAGE gelatin zymography was performed by using a previously reported method (24). Tissue was homogenized in a sample buffer containing 50 mM Tris-HCl (pH 8.0), 150 mM NaCl, 0.02% NaN3, […] phenylmethylsulfonyl fluoride (PMSF) and 1% Triton X-100. […]
Gelatinolytic activity (105 kDa gelatinolytic band corresponds to murine MMP-9) was evaluated in corneal and conjunctival epithelial cells acquired from the UT, EDE and two treatment groups.

VEGFR-2 = molecular target: T1, VEGFR-2 (Homo sapiens, UniProt P35968); test: Western blotting of VEGF-stimulated VEGFR-2 phosphorylation in HREC; assay type: cell-based; settings: endothelial cells (HREC), concentration-dependent, FIG. 4
T1 construct: host or cells: human retinal endothelial cells (HREC), passages 4 to 6
Experimental: (§4) Human retinal endothelial cells (HREC) were acquired from Sciencell (USA). The cells were cultured in sterilized endothelial cell medium (ECM, Sciencell, USA), and kept in a humidified 5% CO2 incubator at 37° C. Passages 4 to 6 of the HREC were used for testing.
(§5) HREC were homogenized in a buffer containing 50 mM Tris-HCl (pH 8.0), 150 mM NaCl, 0.02% NaN3, 100 μg/mL PMSF, 1 μg/mL aprotinin and 1% Triton X-100. Protein concentration was measured using a Bio-Rad protein assay (Bio-Rad, USA). Thirty (30) μg of the total cell lysate sample was separated by SDS-PAGE based on size, and subjected to electrophoretic migration toward a nitrocellulose membrane using a Hoefer electrophoresis system (Amersham Biosciences, UK). For detection of target protein, the membrane was reacted with p-AKT, ERK, p-ERK, VEGFR-2 (flk-1, Q-20), VE-cadherin, FAK, paxillin, vincullin (SantaCruz Biotechnology, USA) and p-VEGFR-2 (Cell Signaling Tech., USA) antibodies. Detection was carried out using secondary horseradish peroxidase-bound anti-rabbit IgG antibody, anti-goat IgG antibody and anti-mouse IgG antibody (SantaCruz Biotechnology, USA), and using ECL chemiluminescence system (Amersham Biosciences, UK).
(§6) VEGF-mediated VEGFR-2 activation plays an important role in tumor angiogenesis via the activation of VEGFR-2 downstream signal pathways in endothelial cells (25). […]

AKT = test: Western blotting of VEGF-induced AKT activation in HREC; assay type: cell-based, human; settings: FIG. 4
Experimental: as §4, §5, §6

[2] = tested on: human retinal endothelial cells (HREC); test: Tube formation assay on Matrigel, VEGF-stimulated HREC; assay type: cell-based; settings: 24 hours, concentration-dependent, FIG. 5
Experimental: as §4
Sialyllactose's inhibition effect against HREC's capillary-like network induced by VEGF was investigated using Matrigel-coated 24-well culture plate. Matrigel (13.9 mg/mL) was melted overnight at 4° C. and mixed with ECM medium at a ratio of 1:1. After adding 70 μL of Matrigel (6.95 mg/mL) diluted with ECM to each well of the 24-well culture plate, polymerization was performed for 1 hour at 37° C. For evaluation of tube formation, HREC were detached from the tissue culture plate, washed, resuspended in ECM medium containing 1% FBS (1×10^4 cells/well), and added to the Matrigel-coated well in the presence or absence of VEGF along with sialyllactose at various concentrations. The plate was incubated in a 5% CO2 incubator for 24 hours at 37° C., and capillary-like tube formed in each well of the plate was photographed using a Nikon optical microscope.
The VEGF-mediated VEGFR-2 activation is closely associated with the angiogenic action of endothelial cells such as proliferation, migration, survival and tube formation (25). […]

FAK = test: Immunofluorescence microscopy of anti-FAK stained focal adhesions in VEGF-stimulated HREC; assay type: cell-based, human; settings: HREC stimulated with 50 ng/mL VEGF, FIG. 6 C
Experimental: as §4
(§7) HREC were inoculated onto 12 mm n-sterilized, gelatin-coated coverslip of 6-well tissue culture plate. In the presence or absence of sialyllactose, HREC were immobilized with 3.7% formalin with or without treatment with VEGF. Then, the cells were passed through […] Triton X-100 in PBS and washed three times with PBS. Non-specific sites were blocked with PBS-containing 1% bovine serum albumin, while gently shaking at ambient temperature for 30 minutes. After immersing the cells in a solution of FAK, paxillin, vincullin and VE-cadherin antibodies, the cells were incubated overnight at 4° C. After washing with PBS, the cells were further reacted with Alexa Flour 594-conjugate goat anti-mouse IgG (Molecular Probes, USA) and Alexa Flour 488-conjugate goat anti-rabbit IgG (Molecular Probes, USA) at ambient temperature for 1 hour. After washing with PBS, analysis was carried out by fluorescence microscopy. Primary antibodies previously bound to antigens or secondary antibodies were used as negative control. […]

paxillin = test: Immunofluorescence microscopy of anti-paxillin stained focal adhesions in VEGF-stimulated HREC; assay type: cell-based, human; settings: HREC stimulated with 50 ng/mL VEGF, FIG. 6 G
Experimental: as §4, §7

VE-cadherin = test: Immunofluorescence microscopy of VEGF-induced intercellular adhesion (VE-cadherin staining) in HREC; assay type: cell-based, human; settings: VEGF-stimulated HREC, one hour after VEGF stimulation, FIG. 7 C
Experimental: as §4, §7

[3] = corneal epithelial cells, EDE group treated with sialyllactose, FIG. 2

T1 sequence (P35968 20-1356): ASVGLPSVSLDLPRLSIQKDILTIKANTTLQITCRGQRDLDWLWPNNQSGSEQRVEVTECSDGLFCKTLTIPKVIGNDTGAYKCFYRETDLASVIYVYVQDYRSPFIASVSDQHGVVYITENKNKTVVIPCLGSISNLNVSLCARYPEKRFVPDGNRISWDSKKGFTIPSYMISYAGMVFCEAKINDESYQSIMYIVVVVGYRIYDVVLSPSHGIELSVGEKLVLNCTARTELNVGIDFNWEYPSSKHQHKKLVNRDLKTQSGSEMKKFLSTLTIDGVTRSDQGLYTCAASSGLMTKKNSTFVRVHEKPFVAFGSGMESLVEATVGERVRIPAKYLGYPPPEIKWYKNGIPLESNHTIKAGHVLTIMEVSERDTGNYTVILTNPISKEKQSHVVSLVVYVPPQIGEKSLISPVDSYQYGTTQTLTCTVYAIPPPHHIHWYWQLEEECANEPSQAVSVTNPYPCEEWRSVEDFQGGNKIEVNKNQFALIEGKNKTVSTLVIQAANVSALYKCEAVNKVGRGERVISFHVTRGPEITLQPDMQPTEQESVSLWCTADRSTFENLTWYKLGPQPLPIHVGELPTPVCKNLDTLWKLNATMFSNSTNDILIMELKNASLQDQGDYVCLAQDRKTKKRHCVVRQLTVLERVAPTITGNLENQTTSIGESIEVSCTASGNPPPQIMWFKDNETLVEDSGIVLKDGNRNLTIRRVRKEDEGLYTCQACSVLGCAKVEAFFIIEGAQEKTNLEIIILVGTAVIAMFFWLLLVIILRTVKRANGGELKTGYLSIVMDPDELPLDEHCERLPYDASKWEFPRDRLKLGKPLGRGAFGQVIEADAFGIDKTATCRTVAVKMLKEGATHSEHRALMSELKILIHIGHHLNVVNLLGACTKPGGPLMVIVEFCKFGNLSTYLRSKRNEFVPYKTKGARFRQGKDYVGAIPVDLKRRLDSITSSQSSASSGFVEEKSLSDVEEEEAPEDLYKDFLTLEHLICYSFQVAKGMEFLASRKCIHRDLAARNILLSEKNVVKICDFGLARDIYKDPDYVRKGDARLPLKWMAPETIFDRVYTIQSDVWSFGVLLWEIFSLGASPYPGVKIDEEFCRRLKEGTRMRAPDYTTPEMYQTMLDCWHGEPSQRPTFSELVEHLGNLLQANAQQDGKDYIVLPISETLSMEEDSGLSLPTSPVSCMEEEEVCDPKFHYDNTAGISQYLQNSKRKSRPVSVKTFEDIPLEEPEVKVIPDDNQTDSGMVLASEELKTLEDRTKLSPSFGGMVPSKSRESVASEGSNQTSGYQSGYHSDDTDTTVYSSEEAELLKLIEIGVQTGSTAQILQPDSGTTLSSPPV

`CC(=O)N[C@H]1[C@H]([C@H](O)[C@H](O)CO)O[C@@](O[C@H]2[C@@H](O)[C@@H](CO)O[C@@H](O[C@H]3[C@H](O)[C@@H](O)C(O)O[C@@H]3CO)[C@@H]2O)(C(=O)O)C[C@@H]1O` (stereo partly drawn) [sialyllactose, Neu5Ac α-2,3-D-Gal β-1,4-D-Glc] was tested, and the “Tear production versus EDE group” value ([1]; EDE + sialyllactose test groups (1 and 5 mg/kg)) was “statistically significant increased tear production”, the “Tear production (thread's wet length)” value ([1]; EDE mice + sialyllactose 1 mg/kg) was 1.55 ± 0.48 mm and the “Tear production (thread's wet length)” value ([1]; EDE mice + sialyllactose 5 mg/kg) was 1.45 ± 0.34 mm. The “Decrease in expression of MMP-9 gene, 5 mg/kg compared with 1 mg/kg group” value (MMP-9; EDE + sialyllactose 5 mg/kg) was “larger decrease”, the “Level of MMP-9 transcripts” value (MMP-9; [3]) was “decreased” and the “Decrease in expression of IL-1β gene, 5 mg/kg compared with 1 mg/kg group” value (IL-1β; EDE + sialyllactose 5 mg/kg) was “larger decrease”. For the same compound, the “Level of IL-1β transcripts” value (IL-1β; [3]) was “decreased”, the “Decrease in expression of TNF-α gene, 5 mg/kg compared with 1 mg/kg group” value (TNF-α; EDE + sialyllactose 5 mg/kg) was “larger decrease” and the “Level of TNF-α transcripts” value (TNF-α; [3]) was “decreased”. The “Gelatinolytic activity (105 kDa band, MMP-9)” value (murine MMP-9; EDE + sialyllactose 1 mg/kg) was “decreased gelatinolytic activity”, the “Gelatinolytic activity (105 kDa band, MMP-9)” value (murine MMP-9; EDE + sialyllactose 5 mg/kg) was “decreased gelatinolytic activity” and the “VEGF-stimulated VEGFR-2 phosphorylation” value (VEGFR-2) was “strongly reduced”. For the same compound, the “VEGF-induced AKT activation” value (AKT) was “markedly reduced”, the “Width and length of the tube” value [2] was “significantly reduced” and the “Focal adhesions immunostained with anti-FAK” value (FAK) was “markedly inhibited”. The “Recruitment and increase of anti-paxillin immunostaining of focal adhesions” value (paxillin) was “certainly blocked” and the “Sharp and continuous intercellular contact areas (VE-cadherin staining)” value (VE-cadherin) was “recovered”.
